Assays:
[1] = system: carrageenan-induced paw edema; test: Carrageenin-induced acute inflammation (paw edema) in mice; format: in vivo, CD-1 mice; settings: oral; for % inhibition (hind paw edema): 1 h before intra-plantar carrageenan, edema 4 h after, compositions 1-4 250 mg/kg total, Aspirin 150, Phenylbutazone 30, Celebrex 10, Naproxen 30 mg/kg; for anti-inflammatory activity in carrageenan-induced paw edema assay: doses as in Table V
Description: Male CD-1 (Crl.) derived mice weighing 22±1 g were obtained from BioLasco Taiwan (under Charles River Laboratories Technology Licensee). All animals were housed in a controlled temperature (22° C.-24° C.) and humidity (60%-80%) environment with 12 hours light/dark cycles for at least one week prior to experimental use. The animals had free access to standard lab chow for mice (MF-18 (Oriental Yeast Co., Ltd., Japan) and Reverse Osmosis water was granted. All aspects of the study including housing, experimentation and disposal of animals were performed in general accordance with the Guide for the Care and Use of Laboratory Animals (National Academy Press, Washington, D.C., 1996). Groups of 5 CD-1 male mice were fasted overnight prior to use. The test substances were administered orally one hour before intra-plantar injection of the right hind paw with carrageenan (50 μl of 1% suspension).

[2] = system: Complete Freund's Adjuvant-induced arthritis (hind paw volume); test: Adjuvant-induced arthritis in rats; format: in vivo, Lewis rats; settings: reference drugs oral once daily for 5 days: Phenylbutazone 35, Celebrex 10, Dexamethasone 5 mg/kg
Description: The study was conducted in male Lewis rats obtained from Charles River Japan, Inc. The animals were housed in a controlled temperature (21° C.-24° C.) and humidity (54%-68%) environment with 12 hour light/dark cycles for at least 1 week prior to use. Rats had Laboratory Rodent Diet MF-18 (Oriental Yeast Co., Ltd., Japan) and water (reverse osmosis purified water) ad libitum. The entire study and animal conditions and manipulations were conducted in accordance with the Guide for the Care and Use of Laboratory Animals (National Academy Press, Washington, D.C., 1996).
Eight groups of 5 rats weighing approximately 210±10 g were used. […] A dosing volume of 10 ml/kg was used. A well-ground suspension of killed Mycobacterium tuberculosis (0.3 mg in 0.1 ml of light mineral oil (CFA) was administered in a single dose into the subplantar region of the right hind paw 1 hour following the first dose of the test and reference compositions.
Right hind paw volume was measured 4 hours after single CFA injection (denoted day 1), and on day 5 (acute phase), while the left hind paw (without CFA) volume was measured on day 14 and 18 (delayed phase). Hind paw volume was measured by plethysmometer and water cell (25 mm diameter).

[3] = system: knee pain associated with arthrosis
Source text: A 10 year old Husky with a history of bilateral rupture of the cruciate ligament had bilateral knee surgery to correct this problem. The animal was also known to have zinc deficiency.
The dog was prescribed metacam for knee pain associated with arthrosis.

Row | SMILES | % inhibition (hind paw edema) [1] | anti-inflammatory activity in carrageenan-induced paw edema assay [1] | % inhibition Day 14-0 [2] | % inhibition Day 18-0 [2] | % inhibition Day 18-14 [2] | pain control / pain relief (clinical examination) ([3]; 10 year old Husky, composition #8 1 gram per 10 kg body weight daily, a few weeks) | intolerance ([3]; dog, in vivo)
1 | CC(=O)Oc1ccccc1C(=O)O [Aspirin] | 36% | significant anti-inflammatory activity | – | – | – | – | –
2 | Cc1ccc(-c2cc(C(F)(F)F)nn2-c2ccc(S(N)(=O)=O)cc2)cc1 [Celebrex] | 23% | significant anti-inflammatory activity | 20% | 25% | 30% | – | –
3 | COc1ccc2cc([C@H](C)C(=O)O)ccc2c1 [Naproxen] | 36% | significant anti-inflammatory activity | – | – | – | – | –
4 | CCCCC1C(=O)N(c2ccccc2)N(c2ccccc2)C1=O [Phenylbutazone] | 23% | – | 18, 18, 18% | 18, 18, 18% | 18, 18, 18% | – | –
5 | Cc1cnc(NC(=O)C2=C(O)c3ccccc3S(=O)(=O)N2C)s1 [metacam] | – | – | – | – | – | only partially controlled | signs of intolerance

Source: patent US20110262552A1, “Compositions Comprising Plant Extracts and Use Thereof for Treating Inflammation” (priority 2008, published 2011)
